Assay results published in patent US8952024B2, “Herbicidal pyrimidone derivatives” (E I du Pont de Nemours and Company, priority 2009, dated 2015).

Assays:
Assay type in all cases: in vivo
[1] = system: downy bromegrass (Bromus tectorum); test: Test B pre-/postemergence plant response
Outline: (§1)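 Pre-em in loam/sand; post-em at 1–4 leaf (2–18 cm) in peat mix. Solvent + surfactant formulation. Greenhouse 13–15 d; visual % control vs untreated, 0–100.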

[2] = system: corn (Zea mays); test: Test B pre-/postemergence plant response
Outline: as §1

[3] = system: blackgrass (Alopecurus myosuroides); test: Test B pre-/postemergence plant response
Outline: as §1

[4] = system: velvetleaf (Abutilon theophrasti); test: Test B pre-/postemergence plant response
Outline: as §1

[5] = system: bermudagrass (Cynodon dactylon); test: Test B pre-/postemergence plant response
Outline: as §1

[6] = system: soybean (Glycine max); test: Test B pre-/postemergence plant response
Outline: as §1

[7] = system: wheat (Triticum aestivum); test: Test B pre-/postemergence plant response
Outline: as §1

[8] = system: johnsongrass (Sorghum halepense); test: Test B pre-/postemergence plant response
Outline: as §1

[9] = system: giant foxtail (Setaria faberii); test: Test B pre-/postemergence plant response
Outline: as §1

[10] = system: Italian ryegrass (Lolium multiflorum); test: Test B pre-/postemergence plant response
Outline: as §1

[11] = system: pigweed (Amaranthus retroflexus); test: Test B pre-/postemergence plant response
Outline: as §1

[12] = system: goosegrass (Eleusine indica); test: Test B pre-/postemergence plant response
Outline: as §1

[13] = system: ragweed (common ragweed, Ambrosia elatior); test: Test B pre-/postemergence plant response
Outline: as §1

[14] = system: morningglory (Ipomoea coccinea); test: Test B pre-/postemergence plant response
Outline: as §1

[15] = system: green foxtail (Setaria viridis); test: Test B pre-/postemergence plant response
Outline: as §1

[16] = system: canarygrass (Phalaris minor); test: Test B postemergence plant response
Outline: (§2)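 Visual ratings from 0 (no effect) to 100 (complete control), made against controls 13–15 days after treatment, kept in a greenhouse. Compounds were applied postemergence to potted plants at the 1- to 4-leaf stage (2–18 cm).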

[17] = system: winter barley (Hordeum vulgare); test: Test B postemergence plant response
Outline: as §2

[18] = system: chickweed (Stellaria media); test: Test B postemergence plant response
Outline: as §2

[19] = 31 g ai/ha, postemergence, scale 0 to 100, 0 is no effect, 100 is complete control
[20] = 250 g ai/ha, Preemergence, 0 to 100 scale
[21] = Postemergence, 62 g ai/ha, scale 0 (no effect) to 100 (complete control), 13 to 15 days
[22] = Postemergence, 125 g ai/ha, visual rating after 13 to 15 days, scale 0 (no effect) to 100 (complete control)
[23] = Postemergence, 250 g ai/ha, scale 0 to 100 (0 no effect, 100 complete control)
[24] = Preemergence, 31 g ai/ha, scale 0 to 100 (0 no effect, 100 complete control)
[25] = Preemergence, 62 g ai/ha, scale 0 to 100, 0 no effect, 100 complete control
[26] = Preemergence, 125 g ai/ha, scale 0 to 100, 0 no effect, 100 complete control

**Q.** What does the source list for `O=C1CCCC(O)=C1C(=O)c1cnc(-c2cccs2)n(-c2ccccc2)c1=O` [Compound 66]?
**A.** Plant response rating, Bromegrass, Downy [1, 19]: 5; Plant response rating, Bromegrass, Downy [1, 20]: 0; Plant response rating, Bromegrass, Downy [1, 21]: 10; Plant response rating, Bromegrass, Downy [1, 22]: 20; Plant response rating, Bromegrass, Downy [1, 23]: 25; Plant response rating, Bromegrass, Downy [1, 24]: 0; Plant response rating, Bromegrass, Downy [1, 25]: 0; Plant response rating, Bromegrass, Downy [1, 26]: 0; Plant response rating, Corn [2, 19]: 25; Plant response rating, Corn [2, 20]: 0; Plant response rating, Corn [2, 21]: 55; Plant response rating, Corn [2, 22]: 70; Plant response rating, Corn [2, 23]: 75; Plant response rating, Corn [2, 24]: 0; Plant response rating, Corn [2, 25]: 0; Plant response rating, Corn [2, 26]: 0; Plant response rating, Blackgrass [3, 19]: 5; Plant response rating, Blackgrass [3, 20]: 5; Plant response rating, Blackgrass [3, 21]: 10; Plant response rating, Blackgrass [3, 22]: 10; Plant response rating, Blackgrass [3, 23]: 15; Plant response rating, Blackgrass [3, 24]: 0; Plant response rating, Blackgrass [3, 25]: 0; Plant response rating, Blackgrass [3, 26]: 5; Plant response rating, Velvetleaf [4, 19]: 85; Plant response rating, Velvetleaf [4, 21]: 90; Plant response rating, Velvetleaf [4, 22]: 98; Plant response rating, Velvetleaf [4, 23]: 100; Plant response rating, Velvetleaf [4, 24]: 80; Plant response rating, Velvetleaf [4, 25]: 80; Plant response rating, Velvetleaf [4, 26]: 95; Plant response rating, Bermudagrass [5, 19]: 70; Plant response rating, Bermudagrass [5, 20]: 98; Plant response rating, Bermudagrass [5, 21]: 70; Plant response rating, Bermudagrass [5, 22]: 95; Plant response rating, Bermudagrass [5, 23]: 95; Plant response rating, Bermudagrass [5, 24]: 20; Plant response rating, Bermudagrass [5, 25]: 80; Plant response rating, Bermudagrass [5, 26]: 98; Plant response rating, Soybean [6, 19]: 95; Plant response rating, Soybean [6, 21]: 95; Plant response rating, Soybean [6, 22]: 98; Plant response rating, Soybean [6, 23]: 98; Plant response rating, Wheat [7, 19]: 0; Plant response rating, Wheat [7, 22]: 0; Plant response rating, Wheat [7, 23]: 0; Plant response rating, Wheat [7, 24]: 0; Plant response rating, Wheat [7, 25]: 0; Plant response rating, Wheat [7, 26]: 0; Plant response rating, Johnsongrass [8, 19]: 45; Plant response rating, Johnsongrass [8, 20]: 98; Plant response rating, Johnsongrass [8, 21]: 60; Plant response rating, Johnsongrass [8, 22]: 65; Plant response rating, Johnsongrass [8, 23]: 65; Plant response rating, Johnsongrass [8, 24]: 0; Plant response rating, Johnsongrass [8, 25]: 55; Plant response rating, Johnsongrass [8, 26]: 85; Plant response rating, Foxtail, Giant [9, 19]: 65; Plant response rating, Foxtail, Giant [9, 20]: 80; Plant response rating, Foxtail, Giant [9, 21]: 75; Plant response rating, Foxtail, Giant [9, 22]: 80; Plant response rating, Foxtail, Giant [9, 23]: 95; Plant response rating, Foxtail, Giant [9, 24]: 15; Plant response rating, Foxtail, Giant [9, 25]: 20; Plant response rating, Foxtail, Giant [9, 26]: 75; Plant response rating, Ryegrass, Italian [10, 19]: 0; Plant response rating, Ryegrass, Italian [10, 21]: 0; Plant response rating, Ryegrass, Italian [10, 22]: 5; Plant response rating, Ryegrass, Italian [10, 23]: 10; Plant response rating, Ryegrass, Italian [10, 24]: 0; Plant response rating, Ryegrass, Italian [10, 25]: 0; Plant response rating, Ryegrass, Italian [10, 26]: 0; Plant response rating, Pigweed [11, 19]: 98; Plant response rating, Pigweed [11, 21]: 98; Plant response rating, Pigweed [11, 22]: 100; Plant response rating, Pigweed [11, 23]: 100; Plant response rating, Pigweed [11, 24]: 98; Plant response rating, Pigweed [11, 25]: 98; Plant response rating, Pigweed [11, 26]: 98; Plant response rating, Goosegrass [12, 19]: 65; Plant response rating, Goosegrass [12, 20]: 98; Plant response rating, Goosegrass [12, 21]: 65; Plant response rating, Goosegrass [12, 22]: 70; Plant response rating, Goosegrass [12, 23]: 95; Plant response rating, Goosegrass [12, 24]: 35; Plant response rating, Goosegrass [12, 25]: 75; Plant response rating, Goosegrass [12, 26]: 90; Plant response rating, Ragweed [13, 19]: 0; Plant response rating, Ragweed [13, 21]: 10; Plant response rating, Ragweed [13, 22]: 25; Plant response rating, Ragweed [13, 23]: 60; Plant response rating, Ragweed [13, 24]: 0; Plant response rating, Ragweed [13, 25]: 0; Plant response rating, Ragweed [13, 26]: 45; Plant response rating, Morningglory [14, 19]: 98; Plant response rating, Morningglory [14, 21]: 100; Plant response rating, Morningglory [14, 22]: 100; Plant response rating, Morningglory [14, 23]: 100; Plant response rating, Morningglory [14, 24]: 0; Plant response rating, Morningglory [14, 25]: 20; Plant response rating, Morningglory [14, 26]: 25; Plant response rating, Foxtail, Green [15, 19]: 80; Plant response rating, Foxtail, Green [15, 20]: 75; Plant response rating, Foxtail, Green [15, 21]: 85; Plant response rating, Foxtail, Green [15, 22]: 90; Plant response rating, Foxtail, Green [15, 23]: 98; Plant response rating, Foxtail, Green [15, 24]: 0; Plant response rating, Foxtail, Green [15, 25]: 5; Plant response rating, Foxtail, Green [15, 26]: 30; Plant response rating, Canarygrass [16, 19]: 0; Plant response rating, Canarygrass [16, 21]: 0; Plant response rating, Canarygrass [16, 22]: 0; Plant response rating, Canarygrass [16, 23]: 0; Plant response rating, Barley [17, 19]: 0; Plant response rating, Barley [17, 21]: 0; Plant response rating, Barley [17, 22]: 0; Plant response rating, Barley [17, 23]: 0; Plant response rating, Chickweed [18, 19]: 80; Plant response rating, Chickweed [18, 21]: 85; Plant response rating, Chickweed [18, 22]: 95; Plant response rating, Chickweed [18, 23]: 98
